“And” between values parts separate entries of the source, which are not always exact repeats. Equal values may be shown once. Read-outs that look alike come from different tables or passages of the source.
Experiments:
[1] = system: murine macrophage J774.A1 cells; test: Nitric oxide (NO) inhibition in LPS-stimulated J774.A1 cells (Griess); assay type: cell-based; settings: for prevention of LPS-induced NO release from J774.A1 macrophages: in words
Description: Murine monocytes (J774.A1 cells) produce measurable quantities of NO on exposure to LPS and provide a model for the rapid assessment of compounds to neutralize LPS activity. […] In all experiments, Polymyxin B (PMB), a decapeptide antibiotic, known to bind and neutralize LPS,^29;47;48 is used as a reference compound.
Nitric oxide production is measured as total nitrite in murine macrophage J774.A1 cells using the Griess reagent system.^53;54 Murine macrophage J774.A1 cells are grown in RPMI-1640 cell-culture medium containing L-glutamine and sodium bicarbonate and supplemented with 10% fetal bovine serum, 1% L-glutamine-penicillin-streptomycin solution, and 200 μg/ml L-arginine at 37° C. in a 5% CO2 atmosphere. Cells are plated at ˜2×10^6/ml in a volume of 40 μl/well, in 384 well, flat-bottomed, cell culture treated microtiter plates until confluency and subsequently stimulated with 100 ng/ml lipopolysaccharide (LPS). Concurrent to LPS stimulation, serially diluted concentrations of test compounds are added to the cell medium and left to incubate overnight for 16 h. Polymyxin B is used as reference compound in each plate. Positive—(LPS stimulation only) and negative-controls (J774.A1 medium only) are included in each experiment. Nitrite concentrations are measured adding 30 μl of supernatant to equal volumes of Griess reagents (50 μl/well; 0.1% NED solution in ddH2O and 1% sulfanilamide, 5% phosphoric acid solution in ddH2O) and incubating for 15 minutes at room temperature in the dark. Absorbance at 535 nm is measured using a Molecular Devices Spectramax M2 multifunction plate reader (Sunnyvale, Calif.). Nitrite concentrations are interpolated from standard curves obtained from serially diluted sodium nitrite standards.

[2] = system: NFκB; test: NFκB inhibition (LPS-induced); assay type: cell-based; settings: for IC50: Table 7 focused library, NFκB inhibition, read-out: NFκ B; for prevention of LPS-induced NFκβ cytokine release from stimulated lymphocytes: in words
From the text: A focused library of alkyl or acyl c-substituted lysine-spermine conjugates is synthesized with even carbon-numbered chains of C14 to C20 lengths. […] Furthermore, the data showhigh activity compounds are those with chain lengths between C16 and C20. […] The exemplary compounds L-Lys-ε-(stearoyl)-N^1-spermine, D-Lys-ε-(stearoyl)-N^1-spermine, L-Lys-ε-(octadecanyl)-N^1-spermine and D-Lys-ε-(octadecanyl)—N1-spermine all show high activity for the prevention of LPS-induced NFκβ cytokine release from stimulated lymphocytes. Furthermore, the exemplary compounds L-Lys-ε-(stearoyl)-N^1-spermine, D-Lys-ε-(stearoyl)-N^1-spermine, L-Lys-ε-(octadecanyl)-N^1-spermine and D-Lys-ε-(octadecanyl)-N^1-spermine all show high activity for the prevention of LPS-induced NO release from stimulated lymphocytes.

[3] = assay type: binding, E. coli 0111:B4; settings: for EC50: E. coli 0111:B4 LPS, Tables 1-3, read-out: ED50 (half-maximal effective displacement of BC probe from LPS); for IC50: b47, cis-unsaturated vs saturated alkyl
Description: Polymyxin B (PMB), a peptide antibiotic known to bind and neutralize LPS^47 serves as the positive control and reference compound for every plate, enabling the quantitative assessment of repeatability and reproducibility (CV and Z′ factors) for the assay. Robotic liquid handling is performed on a Precision 2000 automated microplate pipetting system, programmed using the Precision Power software, Bio-Tek Instruments Inc., VT, USA. Stock solutions of LPS (5 mg/ml; E. coli 0111:B4; procured from Sigma) and BC (500 μM) are prepared in Tris buffer (pH 7.4, 50 mM). 1 ml each of the LPS and BC stocks are mixed and diluted in Tris buffer to a final volume of 100 ml, yielding final concentrations of 50 μg/ml of LPS and 5 μM BC. 40 μl of this BC:LPS mixture is added to each well of the plate using the Precision 2000. Fluorescence measurements are made at 25° C. on a Fluoromax-3 with Micromax Microwell 384-well plate reader, using DataMax software, Jobin Yvon Inc., N.J. The BC excitation wavelength is 580 nm, emission spectra are taken at 620 nm with both emission and excitation monochromator bandpasses set at 5 nm.

[4] = system: CF-1 mice; settings: previous studies (ref. 37); cited from earlier work
[5] = J774.A1 cells, 100 ng/ml LPS, 16 h, Tables 1-3, read-out: NO IC50
[6] = Mus musculus, J774.A1, 16 h, J774.A1 cells, 100 ng/ml LPS, 16 h, Tables 1-3, read-out: NO IC50
[7] = Mus musculus, J774.A1, Table 7 focused library, NO inhibition, read-out: NO
[8] = Table 7 focused library, NO inhibition, read-out: NO

Row | SMILES | IC50 [1, 5] [µM] | IC50 [1, 6] [µM] | EC50 [3] | also measured
1 | CCCCCCCCCCCCCCCCCCCC(=O)NCCCCC(N)C(=O)NCCCNCCCCNCCCN [Compound 7, L-Lys-ε-(eicosanoyl)-N^1-spermine] | 1.21 | 1.2 | 6.46 µM | IC50 [1, 7]: 4.69 µM; IC50 [2]: 1.24 µM
2 | CCCCCCCCCCCCCCCCCC(=O)NCCCCC(N)C(=O)NCCCNCCCCNCCCN [Compound 9, L-Lys-ε-(stearoyl)-N^1-spermine] | 18.1 |  | 16 µM and 16.4 µM | IC50 [1, 7]: 8.78 µM; prevention of LPS-induced NO release from J774.A1 macrophages [1]: high activity; IC50 [2]: 0.736 µM; prevention of LPS-induced NFκβ cytokine release from stimulated lymphocytes [2]: high activity
3 | CCCCCCCCCCCCCCCC(=O)NCCCCC(N)C(=O)NCCCNCCCCNCCCN [Compound 14, L-Lys(palmitoyl)-N^1-spermine] | 6.41 |  | 11 µM and 10.7 µM | IC50 [1, 7]: 16.8 µM; IC50 ([1]; read-out: NO IC50, J774.A1 cells, 100 ng/ml LPS, 16 h, Tables 1-3): 6.4 µM; IC50 [2]: 0.819 µM
4 | CCCCCCCCCCCCCC(=O)NCCCCC(N)C(=O)NCCCNCCCCNCCCN [Compound 16, L-Lys-ε-(myristoyl)-N^1-spermine] |  | 1.6 | 5.63 µM | IC50 [1, 7]: 22.2 µM; IC50 [2]: 0.753 µM
5 | COCCOCC(=O)NCCCCC(N)C(=O)NCCCNCCCCNCCCN [Compound 25, L-Lys-ε-(2-(2-methoxyethoxy)acetoyl)-N^1-spermine] |  | > 1000 | 495 µM | IC50 ([1]; Mus musculus, J774.A1, read-out: IC50 (LPS neutralization, NO)): > 1000 µM
6 | CCCCCCCCCCCCCCCCNCCCCC(N)C(=O)NCCCNCCCCNCCCN [Compound 26, L-Lys-ε-(“hexadecyl)-N^1-spermine] |  |  | 5.6 µM and 5.56 µM | IC50 [1, 7]: 3.78 µM; IC50 [2]: 0.19 µM; IC50 [3]: 5.6 µM
7 | CCCC/C=C\CCCCCCCCCCNCCCCC(N)C(=O)NCCCNCCCCNCCCN (stereo not shown) [Compound 27] |  | 0.66 | 2.59 µM | IC50 [3]: 2.6 µM
8 | CCCCCCCNCCCCC(N)C(=O)NCCCNCCCCNCCCN (stereo not shown) [Compound 28] | 82.3 |  | 3.86 µM | 
9 | CCCCCCCNCCCCC(N)C(=O)NCCCNCCCCNCCCN (stereo not shown) [Compound 29] | 46.4 | 46 | 5.99 µM | 
10 | CCCCCCCN(CCCCCCC)CCCC[C@H](N)C(=O)NCCCNCCCCNCCCN [Compound 30, L-Lys-ε-(bis-(n-heptyl))-N^1-spermine] | 38.8 |  | 2.14 µM | 
11 | CCCCCCNCCCCC(N)C(=O)NCCCNCCCCNCCCN (stereo not shown) [Compound 31] |  | > 1000 | 7.13 µM | 
12 | CC(C)=CCC[C@H](C)CCNCCCCC(N)C(=O)NCCCNCCCCNCCCN (stereo partly shown) [Compound 32] |  | > 1000 | 9.6 µM and 9.55 µM | 
13 | CC(C)(C)CCNCCCCC(N)C(=O)NCCCNCCCCNCCCN (stereo not shown) [Compound 33] |  | > 1000 | 12.1 µM | 
14 | CC(C)(C)CCNCCCCC(N)C(=O)NCCCNCCCCNCCCN [Compound 34, D-Lys-ε-(3,3-dimethyl-1-butyl)-N^1-spermine] | 838 |  | 10.9 µM | 
15 | CC(C)CNCCCCC(N)C(=O)NCCCNCCCCNCCCN [Compound 35, D-Lys-ε-(3-methylpropyl)-N^1-spermine] |  | 72.9 | 101 µM | 
16 | NCCCNCCCCNCCCNC(=O)C(N)CCCCNCC1CCCCC1 (stereo not shown) [Compound 37] |  | > 1000 | 9.8 µM and 9.84 µM | 
17 | NCCCNCCCCNCCCNC(=O)C(N)CCCCN(CC1CCCCC1)CC1CCCCC1 [Compound 38, L-Lys-ε-(bis-(cyclohexyl))-N^1-spermine] | > 1000 |  | 4 µM and 4.04 µM | 
18 | NCCCNCCCCNCCCNC(=O)C(N)CCCCNCc1ccc(-c2ccccc2)cc1 [Compound 39, D-Lys-ε-(4-phenylbenzyl)-N^1-spermine] | 105 |  | 3.7 µM and 3.71 µM | IC50 ([1]; Mus musculus, J774.A1, 16 h, read-out: NO IC50, J774.A1 cells, 100 ng/ml LPS, 16 h, Tables 1-3): > 100 µM
19 | CCCCCCCCCCCCCCCCCCNCCCC[C@H](N)C(=O)NCCCNCCCCNCCCN [Compound 44, L-Lys-ε-(octadecanyl)-N^1-spermine] |  |  |  | IC50 [1, 8]: 2.25 µM; prevention of LPS-induced NO release from J774.A1 macrophages [1]: high activity; prevention of LPS-induced NFκβ cytokine release from stimulated lymphocytes [2]: high activity
20 | CCCCCCCCCCCCCCCCCCNCCCC[C@@H](N)C(=O)NCCCNCCCCNCCCN [Compound 48, D-Lys-ε-(octadecanyl)-N^1-spermine] |  |  |  | IC50 [1, 8]: 3.08 µM; prevention of LPS-induced NO release from J774.A1 macrophages [1]: high activity; prevention of LPS-induced NFκβ cytokine release from stimulated lymphocytes [2]: high activity
21 | CCCCCCCC/C=C\CCCCCCCC(=O)OCC(COC(=O)CCCCCCC/C=C\CCCCCCCC)NC(=O)C(CCCNCCCN)NCCCN (stereo not shown) [DOSPER] |  |  |  | window of protection [4]: 15 min
